Test results published in patent publication US20250230193A1, “CYCLIC COMPOUND HAVING SELECTIVE KRAS INHIBITORY EFFECT ON HRAS AND NRAS” (CHUGAI SEIYAKU KABUSHIKI KAISHA, priority 2022, published 2025).

What was measured:
[1] = molecular target: GDP-bound NRAS wild-type protein (Homo sapiens, UniProt P01111); assay: Binding to NRAS by surface plasmon resonance (SPR), Single Cycle Kinetics; settings: SPR, GDP-bound NRAS wild-type vs GDP-bound KRAS wild-type
[2] = molecular target: GDP-bound HRAS wild-type protein (Homo sapiens, UniProt P01112); assay: Binding to HRAS by surface plasmon resonance (SPR), Single Cycle Kinetics; settings: SPR, GDP-bound HRAS wild-type vs GDP-bound KRAS wild-type
Sequence of GDP-bound HRAS wild-type protein (P01112 whole entry): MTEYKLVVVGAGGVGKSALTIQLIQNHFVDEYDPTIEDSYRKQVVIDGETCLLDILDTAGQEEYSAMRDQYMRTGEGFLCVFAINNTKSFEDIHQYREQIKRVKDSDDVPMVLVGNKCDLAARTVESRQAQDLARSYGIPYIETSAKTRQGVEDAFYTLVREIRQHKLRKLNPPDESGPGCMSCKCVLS

Sequence of GDP-bound NRAS wild-type protein (P01111 whole entry): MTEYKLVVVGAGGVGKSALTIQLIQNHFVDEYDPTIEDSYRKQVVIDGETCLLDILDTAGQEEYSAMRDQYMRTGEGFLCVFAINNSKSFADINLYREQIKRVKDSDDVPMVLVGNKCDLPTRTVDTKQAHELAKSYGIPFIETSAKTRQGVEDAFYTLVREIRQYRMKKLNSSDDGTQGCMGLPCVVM

Structure (SMILES)	NRAS/KRAS (ratio of KD value with respect to NRAS to KD value with respect to KRAS) [1]	HRAS/KRAS (ratio of KD value with respect to HRAS to KD value with respect to KRAS) [2]
CCC[C@H]1C(=O)N[C@@H]([C@@H](C)CC)C(=O)N2CCC[C@H]2C(=O)N(C)[C@H]2C/C=C\CCN(C2=O)[C@@H](CC2CCCCC2)C(=O)N(C)CC(=O)N[C@@H](CCc2ccc(C(F)(F)F)c(OC)c2)C(=O)N2C[C@@H](C)C[C@H]2C(=O)N(C)C2(CCC2)C(=O)N(C)[C@@H](C2CCCC2)C(=O)N(C)[C@H](C(=O)N(C)C)CC(=O)N1C [PP2374]	A (a compound having 10 or more and less than 20 is denoted as A)	A (a compound having 10 or more and less than 20 is denoted as A)
CCOC[C@H]1C(=O)N[C@@H]([C@@H](C)CC)C(=O)N2CCC[C@H]2C(=O)N(C)[C@H]2C/C=C\CCN(C2=O)[C@@H](CC2CCCCC2)C(=O)N(C)CC(=O)N[C@@H](CCc2ccc(C(F)(F)F)c(OC)c2)C(=O)N2C[C@@H](C)C[C@H]2C(=O)N(C)C2(CCC2)C(=O)N(C)[C@@H](C2CCCC2)C(=O)N(C)[C@H](C(=O)N(C)C)CC(=O)N1C [PP2375]	A (a compound having 10 or more and less than 20 is denoted as A)	B (a compound having 3 or more and less than 10 is denoted as B)
CCC[C@H]1C(=O)N[C@@H]([C@@H](C)CC)C(=O)N(C)CC(=O)N(C)[C@H]2C/C=C\CCN(C2=O)[C@@H](CC2CCC(F)(F)CC2)C(=O)N(C)CC(=O)N[C@@H](CCc2ccc(C(F)(F)F)c(OC)c2)C(=O)N2C[C@@H](C)C[C@H]2C(=O)N(C)C2(CCC2)C(=O)N(C)[C@@H](C2CCCC2)C(=O)N(C)[C@H](C(=O)N(C)C)CC(=O)N1C [PP2376]	A (a compound having 10 or more and less than 20 is denoted as A)	A (a compound having 10 or more and less than 20 is denoted as A)
CCCOC[C@H]1C(=O)N[C@@H]([C@@H](C)CC)C(=O)N(C)CC(=O)N(C)[C@H]2C/C=C\CCN(C2=O)[C@@H](CC2CCC(F)(F)CC2)C(=O)N(C)CC(=O)N[C@@H](CCc2ccc(C(F)(F)F)c(OC)c2)C(=O)N2C[C@@H](C)C[C@H]2C(=O)N(C)C2(CCC2)C(=O)N(C)[C@@H](C2CCCC2)C(=O)N(C)[C@H](C(=O)N(C)C)CC(=O)N1C [PP2377]	A (a compound having 10 or more and less than 20 is denoted as A)	A (a compound having 10 or more and less than 20 is denoted as A)
CCC[C@H]1C(=O)N[C@@H]([C@@H](C)CC)C(=O)N(C2CC2)CC(=O)N(C)[C@H]2C/C=C\CCN(C2=O)[C@@H](CC2CCC(F)(F)CC2)C(=O)N(C)CC(=O)N[C@@H](CCc2ccc(C(F)(F)F)c(OC)c2)C(=O)N2C[C@@H](C)C[C@H]2C(=O)N(C)C2(CCC2)C(=O)N(C)[C@@H](C2CCCC2)C(=O)N(C)[C@H](C(=O)N(C)C)CC(=O)N1C [PP2378]	B (a compound having 3 or more and less than 10 is denoted as B)	A (a compound having 10 or more and less than 20 is denoted as A)
CCCOC[C@H]1C(=O)N[C@@H]([C@@H](C)CC)C(=O)N(C2CC2)CC(=O)N(C)[C@H]2C/C=C\CCN(C2=O)[C@@H](CC2CCC(F)(F)CC2)C(=O)N(C)CC(=O)N[C@@H](CCc2ccc(C(F)(F)F)c(OC)c2)C(=O)N2C[C@@H](C)C[C@H]2C(=O)N(C)C2(CCC2)C(=O)N(C)[C@@H](C2CCCC2)C(=O)N(C)[C@H](C(=O)N(C)C)CC(=O)N1C [PP2379]	A (a compound having 10 or more and less than 20 is denoted as A)	A (a compound having 10 or more and less than 20 is denoted as A)
CCC[C@H]1C(=O)N[C@@H]([C@@H](C)CC)C(=O)N2CCC[C@H]2C(=O)N(C)[C@H]2C/C=C\CCN(C2=O)[C@@H](CC2CCC(F)(F)CC2)C(=O)N(C)CC(=O)N[C@@H](CCc2ccc(C(F)(F)F)c(OC)c2)C(=O)N2C[C@@H](C)C[C@H]2C(=O)N(C)C2(CCC2)C(=O)N(C)[C@@H](C2CCCC2)C(=O)N(C)[C@H](C(=O)N(C)C)CC(=O)N1C [PP2380]	A (a compound having 10 or more and less than 20 is denoted as A)	A (a compound having 10 or more and less than 20 is denoted as A)
CCCOC[C@H]1C(=O)N[C@@H]([C@@H](C)CC)C(=O)N2CCC[C@H]2C(=O)N(C)[C@H]2C/C=C\CCN(C2=O)[C@@H](CC2CCC(F)(F)CC2)C(=O)N(C)CC(=O)N[C@@H](CCc2ccc(C(F)(F)F)c(OC)c2)C(=O)N2C[C@@H](C)C[C@H]2C(=O)N(C)C2(CCC2)C(=O)N(C)[C@@H](C2CCCC2)C(=O)N(C)[C@H](C(=O)N(C)C)CC(=O)N1C [PP2381]	A (a compound having 10 or more and less than 20 is denoted as A)	A (a compound having 10 or more and less than 20 is denoted as A)
